Results on eight compounds are retold here after US7355055B2, “Compounds for treatment of lipase-mediated diseases” (Reliance Life Sciences Pvt. Ltd., priority 2005, dated 2008).

Counter-ions that a name gives are not always drawn.

The term IC50 denotes the concentration that gives 50% inhibition. A higher IC50 goes with a need for much substance. In general, inhibition refers to how much of the control response was suppressed. Read a low inhibition as little suppression. For orientation: melting point means the temperature, or range, at which the solid turns liquid.

Series [1] addresses T1, Pancreatic Lipase (Sus scrofa, UniProt P00591).
T1 construct: purchased Sigma L-3126
T1 sequence (P00591 1-450): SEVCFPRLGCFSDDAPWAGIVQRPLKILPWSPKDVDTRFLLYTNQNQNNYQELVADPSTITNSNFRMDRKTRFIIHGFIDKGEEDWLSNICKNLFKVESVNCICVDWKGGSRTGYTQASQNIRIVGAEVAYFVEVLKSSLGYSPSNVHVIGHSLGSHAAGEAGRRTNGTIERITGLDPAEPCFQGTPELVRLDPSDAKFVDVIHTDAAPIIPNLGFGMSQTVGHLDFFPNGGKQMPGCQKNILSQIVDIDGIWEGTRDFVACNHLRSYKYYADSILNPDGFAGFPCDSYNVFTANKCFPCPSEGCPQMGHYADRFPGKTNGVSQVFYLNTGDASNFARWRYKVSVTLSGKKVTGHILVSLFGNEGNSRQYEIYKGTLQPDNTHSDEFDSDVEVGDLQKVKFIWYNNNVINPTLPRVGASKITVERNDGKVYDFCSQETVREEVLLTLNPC
Briefly: Pancreatic lipase inhibition assay (p-nitro phenol palmitate substrate, 96-well). The following applies: for IC50: dose range 6.25 μM-200 μM, interpolated by linear regression; for inhibition at 100 µM / inhibition at 200 µM: pancreatic lipase, 37° C., OD 405 nm; for inhibition at 100 µM: compound 100 μM; for inhibition at 200 µM: compound 200 μM. The class given is biochemical. The procedure: Preparation of test samples: Structures #2-#19 were dissolved in 1 mL DMSO to obtain a 10 mM stock solution, and were vortexed to dissolution and stored at 4° C. The various concentration of working samples were prepared in 0.2 M phosphate buffer, pH-8.0. This sample was used as test sample for all further assays.
Lipase assay: Lipase assay was performed by method described by Winkler and Stuckmann, 1979, with modification. (Winkler, U. K. & Stuckmann, M. Glycogen, hyaluronate, and some other polysaccharides greatly enhance the formation of exolipase by Serratia marcescens. J. Bacteriol. 138: 663-670 (1979)) Assay was designed, using a 96-well format. The substrate used in this assay was p-nitro phenol palmitate (Sigma, Cat No-N-2752). 4.5 mg of p-nitro phenol palmitate was dissolved in 200 μl of N,N-dimethyl formamide (Sigma, Cat No, D-4551) and volume made up to 10 ml with 0.1 M pH 8.0 phosphate buffer. Pancreatic Lipase (Sigma, Cat No. L-3126) sample was prepared by dissolving the enzyme in 0.1M phosphate buffer at a concentration of 5 mg/ml. The reaction mixture consisted of 150 μl substrate solution; 40 μl phosphate buffer (pH 8.0, 0.2 M) and 10 μl lipase solution. The reaction mixture was incubated at 37° C. and optical density was measured at 405 nm after incubation. Enzyme activity was presented in the form of international unit (IU).
Lipase activity: One enzyme unit of lipase is defined as that quantity releasing 1 nm of free phenol from the substrate (p-nitro phenol palmitate) per min per ml under the standard assay condition (Winkler and Stuckmann, 1979; Yadav R P, Saxena R K, Gupta R. Davidson W S., Purification and characterization of a region-specific lipase from Aspergillus terreus. Biotechnol. Appl. Biochem. (1998) 28, (243-249)). It is derived from standard graph of p-nitro phenol (Sigma, 104-8).
Lipase inhibition assay: Enzyme inhibition assay was performed in a dose dependent manner. The concentration of the synthetic analogs checked were 100 μM & 200 μM. The assay was similar to assay described above except 40 μl of test sample was used instead of phosphate buffer in control. Optical density was measured at 0 hr and following incubation at 37° C.
Enzyme Inhibition: Enzyme inhibition was presented in the term of relative activity and percentage inhibition simply on the basis of change in international unit (IU).
Preparation of test samples: Synthetic analogues were dissolved in 1 ml DMSO to obtain a 10 mM stock solution. The samples were vortexed to dissolution and stored at 4° C. The various concentration of working samples were prepared in O.2 M phosphate buffer, pH-8.0. This sample was used as test sample for all further assays.
Lipase inhibition assay: Enzyme inhibition assay was performed in a dose dependent manner. The concentration of the synthetic analogs checked were 6.25 μM-200 μM. The assay was similar to assay described above except 40 μl of test sample was used instead of phosphate buffer in control. Optical density was measured at 0 hr and following incubation at 37° C. The enzyme activity was measured in terms of international unit (IU).
Lipase activity: One enzyme unit of lipase is defined as that quantity releasing 1 nm of free phenol from the substrate (p-nitro phenol palmitate)/min per ml under standard assay conditions. It is derived from standard graph of p-nitro phenol (Sigma, 104-8)
Percent Inhibition: Enzyme inhibition was presented in the term of % inhibition simply on the basis of change in international unit (IU).
The value of IC50 was derived from linear regression. The value derived is based on interpolated data.

`CCCCCCCCCCCC1=C(OC(=O)c2cccc([N+](=O)[O-])c2)C(=O)C=C(OC(=O)c2cccc([N+](=O)[O-])c2)C1=O` [Structure #11, 2,5-bis-(3-nitrophenylcarbonyloxy)-3-undecyl-1,4-benzoquinone] registered a melting point of 112.6 to 114.4 °C. In series [1], this compound came in with a 50% inhibitory concentration (IC50) of 27 µM, an inhibition at 100 µM of 97.4% and an inhibition at 200 µM of 98%.

`CCCCCCCCCCCC1=C(OC(=O)c2cccc(F)c2)C(=O)C=C(OC(=O)c2cccc(F)c2)C1=O` [Structure #2, 2,5-bis-(3-fluorophenylcarbonyloxy)-3-undecyl-1,4-benzoquinone]: the melting point is 73.2 to 75.6 °C. In addition, in series [1], the IC50 was under 6.25 µM, the inhibition at 100 µM was 99.2% and at 200 µM the inhibition was 97.9%.

In turn, `CCCCCCCCCCCC1=C(OC(=O)c2ccccc2F)C(=O)C=C(OC(=O)c2ccccc2F)C1=O` [Structure #4, 2,5-bis-(2-fluorophenylcarbonyloxy)-3-undecyl-1,4-benzoquinone] showed a melting point of 66.2 to 68 °C. For the same compound, in series [1], the half-inhibitory concentration (IC50) amounted to 7.78 µM, the inhibition at 100 µM was found to be 99.6% and 200 µM produced 100% inhibition.

`CCCCCCCCCCCC1=C(OC(=O)c2cccc(Cl)c2)C(=O)C=C(OC(=O)c2cccc(Cl)c2)C1=O` (as salt: Na) [Structure #7, 2,5-bis-(3-chlorophenylcarbonyloxy)-3-undecyl-1,4-benzoquinone] had a melting point of 102.8 to 104.6 °C.

The compound `CCCCCCCCCCCC1=C(OC(=O)c2ccccc2Cl)C(=O)C=C(OC(=O)c2ccccc2Cl)C1=O` (as salt: Na) [Structure #8, 2,5-bis-(2-chlorophenylcarbonyloxy)-3-undecyl-1,4-benzoquinone] showed a melting point of 56.2 to 57.8 °C.

With `CCCCCCCCCCCC1=C(OC(=O)c2ccc(Cl)cc2)C(=O)C=C(OC(=O)c2ccc(Cl)cc2)C1=O` (as salt: Na) [Structure #9, 2,5-bis-(4-chlorophenylcarbonyloxy)-3-undecyl-1,4-benzoquinone], the melting point was 110.2 to 112 °C.

`CCCCCCCCCCCC1=C(OC(=O)c2ccccc2[N+](=O)[O-])C(=O)C=C(OC(=O)c2ccccc2[N+](=O)[O-])C1=O` (as salt: Na) [Structure #14, 2,5-bis-(2-nitrophenylcarbonyloxy)-3-undecyl-1,4-benzoquinone] returned a melting point of 72.2 to 73.8 °C.

`CCCCCCCCCCCC1=C(OC(=O)c2ccccc2I)C(=O)C=C(OC(=O)c2ccccc2I)C1=O` (as salt: Na) [Structure #19, 2,5-bis-(2-iodophenylcarbonyloxy)-3-undecyl-1,4-benzoquinone] displayed a melting point of 64.2 to 67.6 °C.
